Test results taken from patent publication US6770597B2, “Benzohydrazide derivatives as herbicides and desiccant compositions containing them” (Ishihara Sangyo Kaisha, Ltd., priority 2002, dated 2004).

What was measured:
Assay type in all cases: in vivo
[1] = system: sicklepod (Cassia obtusifolia, CASOB); experiment: Greenhouse herbicide screen, post-emerge application, phytotoxicity rating; settings: POST emergent, 14 days after application, scale 0-100
Outline: (§1)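 Crop and weed responses were judged visually on a 0–100 scale two weeks post-treatment. Treatments: acetone solutions, 15–1000 g ai/ha, sprayed at 187 l/ha onto pre-emerge soil or 2–3-leaf plants.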

[2] = system: cocklebur (Xanthium strumarium, XANST); experiment: as above; settings: POST emergent, 14 days after application, scale 0-100
Outline: as §1

[3] = system: lambsquarters (Chenopodium album, CHEAL); experiment: as above; settings: POST emergent, 14 days after application, scale 0-100
Outline: as §1

[4] = system: velvetleaf (Abutilon theophrasti, ABUTH); experiment: as above; settings: POST emergent, 14 days after application, scale 0-100
Outline: as §1

[5] = system: green foxtail (Setaria viridis, SETVI); experiment: as above; settings: POST emergent, 14 days after application, scale 0-100
Outline: as §1

[6] = system: barnyardgrass (Echinochloa crus-galli, ECHCG); experiment: as above; settings: POST emergent, 14 days after application, scale 0-100
Outline: as §1

[7] = system: redroot pigweed (Amaranthus retrofiexus, AMARE); experiment: as above; settings: POST emergent, 14 days after application
Outline: as §1

[8] = system: johnsongrass (Sorghum halepense, SORHA); experiment: as above; settings: POST emergent, 14 days after application, scale 0-100
Outline: as §1

[9] = system: large crabgrass (Digitaria sanguinalis, DIGSA); experiment: as above; settings: POST emergent, 14 days after application, scale 0-100
Outline: as §1

[10] = system: common ragweed (Ambrosia artemisiifolia L., AMBEL); experiment: as above; settings: POST emergent, 14 days after application, scale 0-100
Outline: as §1

[11] = system: ivyleaf morningglory (Ipomoea hederacea, IPOHE); experiment: as above; settings: POST emergent, 14 days after application, scale 0-100
Outline: as §1

[12] = system: field corn (Zea mays L., var. Dekalb 535, CORN); experiment: Greenhouse herbicide screen, pre-emerge application, crop damage rating; settings: PRE emergent, 14 days after application, rating scale 0-100
Description: (§2) A standard greenhouse herbicide activity screening system was used to evaluate the herbicidal efficacy and crop safety of these test compounds. Seven broadleaf weed species including redroot pigweed (Amaranthus retrofiexus, AMARE), velvetleaf (Abutilon theophrasti, ABUTH), sicklepod (Cassia obtusifolia, CASOB), ivyleaf morningglory (Ipomoea hederacea, IPOHE), lambsquarters (Chenopodium album, CHEAL), common ragweed (Ambrosia artemisiifolia L., AMBEL), and cocklebur (Xanthium strumarium, XANST) were used as test species. Four grass weed species including green foxtail (Setaria viridis, SETVI), barnyardgrass (Echinochloa crus-galli, ECHCG), johnsongrass (Sorghum halepense, SORHA), and large crabgrass (Digitaria sanguinalis, DIGSA) were also used. In addition, four crop species, field corn (Zea mays L., var. Dekalb 535, CORN), soybean (Glycine max L., var. Pella 86, SOY), upland rice (Oryza sp., var.Cocodrie, RICE) and wheat (Triticum aestivum L.) were included.
(§3) All plants were grown in 10 cm square plastic pots which were filled with a sandy loam soil mix. For pre-emerge tests, seeds were planted one day prior to application of the test compounds. For post-emerge tests, seeds were planted 8-21 days prior to the test to allow emergence and good foliage development prior to application of the test substances. At the time of the post-emerge application, plants of all species were usually at the 2-3 leaf stage of development.
(§4) All test compounds were dissolved in acetone and applied to the test units in a volume of 187 l/ha. Test materials were applied at rates ranging from 15 g ai/ha to 1000 g ai/ha using a track sprayer equipped with a TJ8001E even flow flat fan spray nozzle. Plants were arranged on a shelf so that the top of the canopy (post-emerge) or top of the soil surface (pre-emerge) was 40-45 cm below the nozzle. Pressurized air was used to force the test solution through the nozzle as it was mechanically advanced (via electrically driven chain drive) over the top of all test plants/pots. This application simulates a typical commercial field herbicide application.
(§5) Pre-emergence tests were top watered immediately after treatment to incorporate the test materials, then routinely top-watered for normal growth. Post-emerge test units were always bottom-watered.
(§6) At 14 days after application of the test materials, phytotoxicity ratings were recorded. A rating scale of 0-100 was used as previously described in Research Methods in Weed Science, 2nd edition, B. Truelove, Ed., Southern Weed Science Society, Auburn University, Auburn, Ala., 1977. Briefly, “0” corresponds to no damage and “100” corresponds to complete death of all plants in the test unit. This scale was used both to determine efficacy against weed species and damage to crop species. Herbicide activity data for various compounds of this invention, which are shown by compound No. in Tables 1-12, are shown in Tables 13 and 14.

[13] = system: upland rice (Oryza sp., var.Cocodrie, RICE); experiment: as above; settings: PRE emergent, 14 days after application, rating scale 0-100
Description: as §2, §3, §4, §5, §6

[14] = system: field corn (Zea mays L., var. Dekalb 535, CORN); experiment: Greenhouse herbicide screen, post-emerge application, crop damage rating; settings: POST emergent, 14 days after application, scale 0-100
Description: as §2, §3, §4, §5, §6

[15] = system: upland rice (Oryza sp., var.Cocodrie, RICE); experiment: as above; settings: POST emergent, 14 days after application, scale 0-100
Description: as §2, §3, §4, §5, §6

[16] = system: sicklepod (Cassia obtusifolia, CASOB); experiment: Greenhouse herbicide screen, pre-emerge application, phytotoxicity rating; settings: PRE emergent, 14 days after application, rating scale 0-100
Outline: as §1

[17] = system: cocklebur (Xanthium strumarium, XANST); experiment: as above; settings: PRE emergent, 14 days after application, rating scale 0-100
Outline: as §1

[18] = system: lambsquarters (Chenopodium album, CHEAL); experiment: as above; settings: PRE emergent, 14 days after application, rating scale 0-100
Outline: as §1

[19] = system: velvetleaf (Abutilon theophrasti, ABUTH); experiment: as above; settings: PRE emergent, 14 days after application, rating scale 0-100
Outline: as §1

[20] = system: green foxtail (Setaria viridis, SETVI); experiment: as above; settings: PRE emergent, 14 days after application, rating scale 0-100
Outline: as §1

[21] = system: barnyardgrass (Echinochloa crus-galli, ECHCG); experiment: as above; settings: PRE emergent, 14 days after application, rating scale 0-100
Outline: as §1

[22] = system: redroot pigweed (Amaranthus retrofiexus, AMARE); experiment: as above; settings: PRE emergent, 14 days after application, rating scale 0-100
Outline: as §1

[23] = system: johnsongrass (Sorghum halepense, SORHA); experiment: as above; settings: PRE emergent, 14 days after application, rating scale 0-100
Outline: as §1

[24] = system: large crabgrass (Digitaria sanguinalis, DIGSA); experiment: as above; settings: PRE emergent, 14 days after application, rating scale 0-100
Outline: as §1

[25] = system: common ragweed (Ambrosia artemisiifolia L., AMBEL); experiment: as above; settings: PRE emergent, 14 days after application, rating scale 0-100
Outline: as §1

[26] = system: ivyleaf morningglory (Ipomoea hederacea, IPOHE); experiment: as above; settings: PRE emergent, 14 days after application, rating scale 0-100
Outline: as §1

CC1CCCC(C)N1NC(=O)c1cc(-n2c(=O)cc(C(F)(F)F)n(C)c2=S)c(F)cc1Cl (stereo not shown) [Compound 1-15]
30: phytotoxicity rating SORHA ([8]; 250 g ai/ha) | crop damage rating RICE ([15]; 250 g ai/ha)
75: phytotoxicity rating CASOB ([1]; 250 g ai/ha) | phytotoxicity rating IPOHE ([11]; 63 g ai/ha) | phytotoxicity rating XANST ([17]; 63 g ai/ha) | phytotoxicity rating ECHCG ([21]; 63 g ai/ha)
10: phytotoxicity rating DIGSA ([9]; 63 g ai/ha) | phytotoxicity rating DIGSA ([9]; 250 g ai/ha)
40: crop damage rating CORN ([14]; 63 g ai/ha)
80: phytotoxicity rating ECHCO ([6]; 250 g ai/ha) | phytotoxicity rating AMBEL ([10]; 63 g ai/ha)
60: crop damage rating CORN ([14]; 250 g ai/ha)
95: phytotoxicity rating AMBEL ([10]; 250 g ai/ha)
55: phytotoxicity rating SETVI ([5]; 250 g ai/ha) | crop damage rating RICE ([13]; 63 g ai/ha)
70: phytotoxicity rating CASOB ([1]; 63 g ai/ha) | crop damage rating RICE ([13]; 250 g ai/ha)
98: phytotoxicity rating CHEAL ([3]; 63 g ai/ha)
0: phytotoxicity rating SORHA ([8]; 63 g ai/ha) | crop damage rating RICE ([15]; 63 g ai/ha)
45: phytotoxicity rating CASOB ([16]; 63 g ai/ha)
90: phytotoxicity rating AMARE ([7]; 63 g ai/ha, scale 0-100 (0 no damage, 100 complete death)) | phytotoxicity rating CASOB ([16]; 250 g ai/ha)
20: phytotoxicity rating SETVI ([5]; 63 g ai/ha)
100: phytotoxicity rating XANST ([2]; 63 g ai/ha) | phytotoxicity rating XANST ([2]; 250 g ai/ha) | phytotoxicity rating CHEAL ([3]; 250 g ai/ha) | phytotoxicity rating ABUTH ([4]; 63 g ai/ha) | phytotoxicity rating ABUTH ([4]; 250 g ai/ha) | phytotoxicity rating AMARE ([7]; 250 g ai/ha, scale 0-100) | phytotoxicity rating IPOHE ([11]; 250 g ai/ha) | crop damage rating CORN ([12]; 250 g ai/ha) | phytotoxicity rating XANST ([17]; 250 g ai/ha) | phytotoxicity rating CHEAL ([18]; 63 g ai/ha) | phytotoxicity rating CHEAL ([18]; 250 g ai/ha) | phytotoxicity rating ABUTH ([19]; 63 g ai/ha) | phytotoxicity rating ABUTH ([19]; 250 g ai/ha) | phytotoxicity rating SETVI ([20]; 63 g ai/ha) | phytotoxicity rating SETVI ([20]; 250 g ai/ha) | phytotoxicity rating ECHCG ([21]; 250 g ai/ha) | phytotoxicity rating AMARE ([22]; 63 g ai/ha) | phytotoxicity rating AMARE ([22]; 250 g ai/ha) | phytotoxicity rating SORHA ([23]; 63 g ai/ha) | phytotoxicity rating SORHA ([23]; 250 g ai/ha) | phytotoxicity rating DIGSA ([24]; 63 g ai/ha) | phytotoxicity rating DIGSA ([24]; 250 g ai/ha) | phytotoxicity rating AMBEL ([25]; 63 g ai/ha) | phytotoxicity rating AMBEL ([25]; 250 g ai/ha) | phytotoxicity rating IPOHE ([26]; 63 g ai/ha) | phytotoxicity rating IPOHE ([26]; 250 g ai/ha)
50: phytotoxicity rating ECHCO ([6]; 63 g ai/ha)
25: crop damage rating CORN ([12]; 63 g ai/ha)
